Measurements as given in patent US11939331B2, “Tricyclic heterocycles as FGFR inhibitors” (Incyte Corporation, priority 2021, dated 2024).

The compounds below were run against wild-type un-phosphorylated FGFR3 protein (Homo sapiens, UniProt P22607) (assay: FGFR Enzymatic Assay (FRET peptide phosphorylation)).
Chain of wild-type un-phosphorylated FGFR3 protein (P22607 23-806): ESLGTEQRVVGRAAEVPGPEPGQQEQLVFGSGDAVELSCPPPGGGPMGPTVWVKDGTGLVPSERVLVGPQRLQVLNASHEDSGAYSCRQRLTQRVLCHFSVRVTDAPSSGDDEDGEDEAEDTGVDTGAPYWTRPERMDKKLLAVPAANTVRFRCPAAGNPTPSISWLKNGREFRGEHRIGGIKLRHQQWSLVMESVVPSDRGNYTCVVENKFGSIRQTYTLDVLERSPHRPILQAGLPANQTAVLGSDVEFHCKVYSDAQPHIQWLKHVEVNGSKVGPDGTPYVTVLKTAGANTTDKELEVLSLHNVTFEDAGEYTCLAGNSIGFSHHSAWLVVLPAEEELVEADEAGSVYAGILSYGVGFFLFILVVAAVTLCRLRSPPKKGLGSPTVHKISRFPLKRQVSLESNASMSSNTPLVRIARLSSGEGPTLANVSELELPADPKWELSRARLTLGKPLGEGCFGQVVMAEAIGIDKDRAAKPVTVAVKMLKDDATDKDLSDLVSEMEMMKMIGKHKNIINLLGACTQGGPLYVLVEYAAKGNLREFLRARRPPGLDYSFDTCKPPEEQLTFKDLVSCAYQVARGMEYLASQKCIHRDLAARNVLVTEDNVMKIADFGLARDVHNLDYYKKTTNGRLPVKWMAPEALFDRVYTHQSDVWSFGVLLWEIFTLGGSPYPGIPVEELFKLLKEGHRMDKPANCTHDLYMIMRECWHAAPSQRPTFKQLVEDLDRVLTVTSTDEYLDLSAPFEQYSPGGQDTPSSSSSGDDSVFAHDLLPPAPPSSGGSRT
Protocol: The inhibitor potency of the exemplified compounds was determined in an enzyme discontinuous assay that measures peptide phosphorylation using FRET measurements to detect product formation. Inhibitors were serially diluted in DMSO and a volume of 0.2 μL was transferred to the wells of a 384-well plate. A 5 μL/well volume of enzyme isoforms of FGFR (-1, -2, -3 wild-type and mutant isoforms, -4) including phosphorylated and un-phosphorylated proteins diluted in assay buffer (50 mM HEPES, 10 mM MgCl2, 1 mM EGTA, 0.01% Tween-20, 5 mM DTT, pH 7.5) was added to the plate and pre-incubated with inhibitor for 5 to 15 minutes at ambient temperature. Appropriate controls (enzyme blank and enzyme with no inhibitor) were included on the plate. The reaction was initiated by the addition of a 5 μL/well volume containing both biotinylated [sequence] peptide substrate (SEQ ID NO: 1) and ATP in assay buffer. The 10 μL/well reaction concentration of the peptide substrate was 500 nM whereas the ATP concentration was maintained near or below the ATP Km. The ATP Km values were pre-determined in a separate series of experiments. The reaction plate was incubated at 25° C. for 1 hr and the reactions were ended with the addition of 5 μL/well of quench solution (50 mM Tris, 150 mM NaCl, 0.5 mg/mL BSA, pH 7.8; 45 mM EDTA, 600 nM staurosporin, with Perkin Elmer Lance Reagents at 3.75 nM Eu-antibody PY20 and 180 nM APC-Streptavidin). The plate was allowed to equilibrate for ˜10 minutes at ambient temperature before scanning on a PheraStar plate reader (BMG Labtech) instrument.
Either GraphPad prism or XLfit was used to analyze the data. The IC50 values were derived by fitting the data to a four parameter logistic equation producing a sigmoidal dose-response curve with a variable Hill coefficient. Prism equation: Y=Bottom+(Top−Bottom)/(1+10^((Log IC50−X)*Hill slope)); XLfit equation: Y=(A+((B−A)/(1+((X/C)^D)))) where X is the logarithm of inhibitor concentration and Y is the response.
`NC(=O)c1c(-c2c(Cl)cccc2Cl)nc2c3cc(-c4cnn(CC(F)(F)F)c4)cnc3ccn12` [Example 33, 2-(2,6-Dichlorophenyl)-9-(1-(2,2,2-trifluoroethyl)-1H-pyrazol-4-yl)imidazo[2,1-f][1,6]naphthyridine-3-carboxamide] was tested, and the IC50 was < 0.1 nM.
`CN(C)CCn1cc(-c2cnc3ccn4c(C(N)=O)c(-c5c(Cl)cccc5Cl)nc4c3c2)cn1` [Example 34, 2-(2,6-Dichlorophenyl)-9-(1-(2-(dimethylamino)ethyl)-1H-pyrazol-4-yl)imidazo[2,1-f][1,6]naphthyridine-3-carboxamide] was tested, and the IC50 was < 0.1 nM.
`COCC(C)(C)n1cc(-c2cnc3ccn4c(C(N)=O)c(-c5c(Cl)cccc5Cl)nc4c3c2)cn1` [Example 35, 2-(2,6-Dichlorophenyl)-9-(1-(1-methoxy-2-methylpropan-2-yl)-1H-pyrazol-4-yl)imidazo[2,1-f][1,6]naphthyridine-3-carboxamide] was tested, and the IC50 was < 0.1 nM.
`CC(O)Cn1cc(-c2cnc3ccn4c(C(N)=O)c(-c5c(Cl)cccc5Cl)nc4c3c2)cn1` (centres unmarked) [Example 36, 2-(2,6-Dichlorophenyl)-9-(1-(2-hydroxypropyl)-1H-pyrazol-4-yl)imidazo[2,1-f][1,6]naphthyridine-3-carboxamide] was tested, and the IC50 was < 0.1 nM.
With `CN(C)CCCn1cc(-c2cnc3ccn4c(C(N)=O)c(-c5c(Cl)cccc5Cl)nc4c3c2)cn1` [Example 37, 2-(2,6-Dichlorophenyl)-9-(1-(3-(dimethylamino)propyl)-1H-pyrazol-4-yl)imidazo[2,1-f][1,6]naphthyridine-3-carboxamide] the IC50 was < 0.1 nM.
With `NC(=O)c1c(-c2c(Cl)cccc2Cl)nc2c3cc(-c4ccc(=O)[nH]c4)cnc3ccn12` [Example 39, 2-(2,6-Dichlorophenyl)-9-(6-oxo-1,6-dihydropyridin-3-yl)imidazo[2,1-f][1,6]naphthyridine-3-carboxamide] the IC50 was 0.1 to 1 nM.
`CC(C)c1[nH]ncc1-c1cnc2ccn3c(C(N)=O)c(-c4c(Cl)cccc4Cl)nc3c2c1` [Example 40, 2-(2,6-Dichlorophenyl)-9-(5-isopropyl-1H-pyrazol-4-yl)imidazo[2,1-f][1,6]naphthyridine-3-carboxamide] showed an IC50 of 1 to 10 nM.
In the case of `NC(=O)c1c(-c2c(Cl)cccc2Cl)nc2c3cc(-c4cnn5c4CCC5)cnc3ccn12` [Example 41, 2-(2,6-Dichlorophenyl)-9-(5,6-dihydro-4H-pyrrolo[1,2-b]pyrazol-3-yl)imidazo[2,1-f][1,6]naphthyridine-3-carboxamide], the IC50 is reported as 0.1 to 1 nM.
`CC(C)(O)c1cncc(-c2cnc3ccn4c(C(N)=O)c(-c5c(Cl)cccc5Cl)nc4c3c2)c1` [Example 42, 2-(2,6-Dichlorophenyl)-9-(5-(2-hydroxypropan-2-yl)pyridin-3-yl)imidazo[2,1-f][1,6]naphthyridine-3-carboxamide] was tested, and the IC50 was 1 to 10 nM.
`CNc1ncc(-c2cnc3ccn4c(C(N)=O)c(-c5c(Cl)cccc5Cl)nc4c3c2)cn1` [Example 43, 2-(2,6-Dichlorophenyl)-9-(2-(methylamino)pyrimidin-5-yl)imidazo[2,1-f][1,6]naphthyridine-3-carboxamide] showed an IC50 of 0.1 to 1 nM.
With `NC(=O)c1c(-c2c(Cl)cccc2Cl)nc2c3cc(-c4cnn(C5CCOC5)c4)cnc3ccn12` (centres unmarked) [Example 44, 2-(2,6-Dichlorophenyl)-9-(1-(tetrahydrofuran-3-yl)-1H-pyrazol-4-yl)imidazo[2,1-f][1,6]naphthyridine-3-carboxamide] the IC50 was < 0.1 nM.
`NC(=O)c1c(-c2c(Cl)cccc2Cl)nc2c3cc(-c4cnn(CCN5CCOCC5)c4)cnc3ccn12` [Example 45, 2-(2,6-Dichlorophenyl)-9-(1-(2-morpholinoethyl)-1H-pyrazol-4-yl)imidazo[2,1-f][1,6]naphthyridine-3-carboxamide] gave an IC50 of 0.1 to 1 nM.
Compound `CN1CCN(CCn2cc(-c3cnc4ccn5c(C(N)=O)c(-c6c(Cl)cccc6Cl)nc5c4c3)cn2)CC1` [Example 46, 2-(2,6-Dichlorophenyl)-9-(1-(2-(4-methylpiperazin-1-yl)ethyl)-1H-pyrazol-4-yl)imidazo[2,1-f][1,6]naphthyridine-3-carboxamide] has an IC50 of 0.1 to 1 nM.
`NC(=O)c1c(-c2c(Cl)cccc2Cl)nc2c3cc(-c4cnn(CCCO)c4)cnc3ccn12` [Example 47, 2-(2,6-Dichlorophenyl)-9-(1-(3-hydroxypropyl)-1H-pyrazol-4-yl)imidazo[2,1-f][1,6]naphthyridine-3-carboxamide] was tested, and the IC50 was < 0.1 nM.
`N#CCCn1cc(-c2cnc3ccn4c(C(N)=O)c(-c5c(Cl)cccc5Cl)nc4c3c2)cn1` [Example 48, 9-(1-(2-Cyanoethyl)-1H-pyrazol-4-yl)-2-(2,6-dichlorophenyl)imidazo[2,1-f][1,6]naphthyridine-3-carboxamide] was tested, and the IC50 was < 0.1 nM.
With `NC(=O)Cn1cc(-c2cnc3ccn4c(C(N)=O)c(-c5c(Cl)cccc5Cl)nc4c3c2)cn1` [Example 49, 9-(1-(2-Amino-2-oxoethyl)-1H-pyrazol-4-yl)-2-(2,6-dichlorophenyl)imidazo[2,1-f][1,6]naphthyridine-3-carboxamide] the IC50 was < 0.1 nM.
For `CC(C)(O)c1ccc(-c2cnc3ccn4c(C(N)=O)c(-c5c(Cl)cccc5Cl)nc4c3c2)cn1` [Example 50, 2-(2,6-Dichlorophenyl)-9-(6-(2-hydroxypropan-2-yl)pyridin-3-yl)imidazo[2,1-f][1,6]naphthyridine-3-carboxamide], the IC50 was 0.1 to 1 nM.
Work on `NC(=O)c1c(-c2c(Cl)cccc2Cl)nc2c3cc(-c4ccc(CC(F)(F)F)nc4)cnc3ccn12` [Example 51, 2-(2,6-Dichlorophenyl)-9-(6-(2,2,2-trifluoroethyl)pyridin-3-yl)imidazo[2,1-f][1,6]naphthyridine-3-carboxamide] yielded an IC50 of 0.1 to 1 nM.
In the case of `CNC(=O)c1ccc(-c2cnc3ccn4c(C(N)=O)c(-c5c(Cl)cccc5Cl)nc4c3c2)cn1` [Example 52, 2-(2,6-Dichlorophenyl)-9-(6-(methylcarbamoyl)pyridin-3-yl)imidazo[2,1-f][1,6]naphthyridine-3-carboxamide], the IC50 is reported as 0.1 to 1 nM.
In the case of `NC(=O)c1c(-c2c(Cl)cccc2Cl)nc2c3cc(C4=CCC(O)CC4)cnc3ccn12` (centres unmarked) [Example 53, 2-(2,6-Dichlorophenyl)-9-(4-hydroxycyclohex-1-en-1-yl)imidazo[2,1-f][1,6]naphthyridine-3-carboxamide], the IC50 is reported as < 0.1 nM.
With `CC(C)(O)c1cnc2ccn3c(C(N)=O)c(-c4c(Cl)cccc4Cl)nc3c2c1` [Example 55, 2-(2,6-Dichlorophenyl)-9-(2-hydroxypropan-2-yl)imidazo[2,1-f][1,6]naphthyridine-3-carboxamide] the IC50 was 10 to 50 nM.
`Cc1nc2c3cc(-c4cnn(C5CCOCC5)c4)cnc3ccn2c1C(N)=O` [Example 57, 2-Methyl-9-(1-(tetrahydro-2H-pyran-4-yl)-1H-pyrazol-4-yl)imidazo[2,1-f][1,6]naphthyridine-3-carboxamide] gave an IC50 of 10 to 50 nM.
`NC(=O)c1cnc2c3cc(-c4cnn(C5CCOCC5)c4)cnc3ccn12` [Example 58, 9-(1-(Tetrahydro-2H-pyran-4-yl)-1H-pyrazol-4-yl)imidazo[2,1-f][1,6]naphthyridine-3-carboxamide] gave an IC50 of 10 to 50 nM.
